Laboratory results from ChEMBL document CHEMBL5291721, “A preclinical secondary pharmacology resource illuminates target-adverse drug reaction associations of marketed drugs” (Nat Commun, 2023).
Where a SMILES comes first, the peptide text is derived from it.

How the values were obtained:
[1] = target: D(1A) dopamine receptor (Homo sapiens, UniProt P21728); assay type: functional, cell-based
[2] = target: Histamine H1 receptor (Homo sapiens, UniProt P35367)
[3] = target: T1, Muscarinic acetylcholine receptor M1 (Homo sapiens, UniProt P11229); assay type: functional
T1 sequence (P11229 whole entry): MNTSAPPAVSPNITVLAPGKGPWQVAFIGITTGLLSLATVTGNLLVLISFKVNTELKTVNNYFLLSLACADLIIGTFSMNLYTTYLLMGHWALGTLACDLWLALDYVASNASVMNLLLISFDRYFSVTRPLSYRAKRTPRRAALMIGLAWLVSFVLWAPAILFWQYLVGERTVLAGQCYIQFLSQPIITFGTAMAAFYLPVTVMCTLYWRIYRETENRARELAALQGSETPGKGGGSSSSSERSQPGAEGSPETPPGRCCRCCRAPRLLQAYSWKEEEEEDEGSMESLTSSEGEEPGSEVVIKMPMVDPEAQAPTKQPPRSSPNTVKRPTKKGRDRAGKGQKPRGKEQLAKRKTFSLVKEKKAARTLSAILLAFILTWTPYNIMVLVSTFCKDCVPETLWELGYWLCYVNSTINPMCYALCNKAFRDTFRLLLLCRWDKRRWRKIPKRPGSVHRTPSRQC

[4] = target: Sodium-dependent noradrenaline transporter (Homo sapiens, UniProt P23975)
[5] = target: T2, Alpha-2A adrenergic receptor (Homo sapiens, UniProt P08913); assay type: functional, cell-based
T2 sequence (P08913 whole entry): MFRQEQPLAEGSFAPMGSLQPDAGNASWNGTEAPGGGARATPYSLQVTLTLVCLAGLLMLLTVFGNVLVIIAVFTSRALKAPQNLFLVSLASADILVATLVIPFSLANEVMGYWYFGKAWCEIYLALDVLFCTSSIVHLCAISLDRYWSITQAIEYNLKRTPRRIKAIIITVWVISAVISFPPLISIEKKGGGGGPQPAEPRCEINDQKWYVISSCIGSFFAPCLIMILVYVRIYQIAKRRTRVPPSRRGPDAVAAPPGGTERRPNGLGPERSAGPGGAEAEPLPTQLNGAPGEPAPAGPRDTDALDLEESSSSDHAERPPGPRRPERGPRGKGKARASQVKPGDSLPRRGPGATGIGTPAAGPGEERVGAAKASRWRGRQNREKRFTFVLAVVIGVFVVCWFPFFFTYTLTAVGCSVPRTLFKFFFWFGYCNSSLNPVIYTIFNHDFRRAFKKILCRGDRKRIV

[6] = target: Adenosine receptor A2a (Homo sapiens, UniProt P29274)
[7] = target: Sodium-dependent dopamine transporter (Homo sapiens, UniProt Q01959)
[8] = target: Vasopressin V1a receptor (Homo sapiens, UniProt P37288)
[9] = target: T3, 5-hydroxytryptamine receptor 3A (Homo sapiens, UniProt P46098); assay type: functional
T3 sequence (P46098 whole entry): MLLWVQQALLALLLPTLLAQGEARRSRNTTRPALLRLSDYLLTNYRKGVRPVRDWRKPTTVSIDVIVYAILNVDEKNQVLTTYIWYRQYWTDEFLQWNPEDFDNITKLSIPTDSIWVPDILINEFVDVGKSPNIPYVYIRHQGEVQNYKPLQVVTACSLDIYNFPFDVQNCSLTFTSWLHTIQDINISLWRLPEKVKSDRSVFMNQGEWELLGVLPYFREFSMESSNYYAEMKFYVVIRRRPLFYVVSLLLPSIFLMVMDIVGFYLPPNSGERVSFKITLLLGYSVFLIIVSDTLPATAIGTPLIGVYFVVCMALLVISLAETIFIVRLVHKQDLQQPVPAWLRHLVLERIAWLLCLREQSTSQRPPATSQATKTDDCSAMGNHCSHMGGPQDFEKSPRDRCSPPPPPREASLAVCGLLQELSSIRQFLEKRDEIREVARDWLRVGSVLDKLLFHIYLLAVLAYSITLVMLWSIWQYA

[10] = target: T4, Glucocorticoid receptor (Homo sapiens, UniProt P04150)
T4 sequence (P04150 whole entry): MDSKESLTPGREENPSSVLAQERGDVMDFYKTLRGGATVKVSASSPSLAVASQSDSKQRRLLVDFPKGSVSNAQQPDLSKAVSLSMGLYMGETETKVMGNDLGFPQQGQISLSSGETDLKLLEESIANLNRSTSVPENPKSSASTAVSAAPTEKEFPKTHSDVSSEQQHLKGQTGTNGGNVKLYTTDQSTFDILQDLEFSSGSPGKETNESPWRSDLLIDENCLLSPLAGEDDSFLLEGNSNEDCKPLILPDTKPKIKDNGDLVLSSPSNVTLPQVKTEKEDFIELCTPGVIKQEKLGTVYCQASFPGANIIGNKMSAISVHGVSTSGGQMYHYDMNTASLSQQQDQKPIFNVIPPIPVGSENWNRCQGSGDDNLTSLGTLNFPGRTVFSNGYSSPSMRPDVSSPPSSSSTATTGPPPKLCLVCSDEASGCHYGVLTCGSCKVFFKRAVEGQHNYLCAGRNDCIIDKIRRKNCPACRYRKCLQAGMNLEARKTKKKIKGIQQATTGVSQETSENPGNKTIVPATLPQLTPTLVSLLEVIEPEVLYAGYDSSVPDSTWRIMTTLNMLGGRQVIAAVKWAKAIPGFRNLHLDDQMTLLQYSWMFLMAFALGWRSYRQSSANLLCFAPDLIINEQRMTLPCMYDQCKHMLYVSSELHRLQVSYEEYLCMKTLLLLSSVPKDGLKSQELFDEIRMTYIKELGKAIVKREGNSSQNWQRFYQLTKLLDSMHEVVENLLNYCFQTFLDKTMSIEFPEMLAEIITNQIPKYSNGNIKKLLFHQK
Also: assay procedure not described here.

D(1A) dopamine receptor, sequence (P21728 whole entry): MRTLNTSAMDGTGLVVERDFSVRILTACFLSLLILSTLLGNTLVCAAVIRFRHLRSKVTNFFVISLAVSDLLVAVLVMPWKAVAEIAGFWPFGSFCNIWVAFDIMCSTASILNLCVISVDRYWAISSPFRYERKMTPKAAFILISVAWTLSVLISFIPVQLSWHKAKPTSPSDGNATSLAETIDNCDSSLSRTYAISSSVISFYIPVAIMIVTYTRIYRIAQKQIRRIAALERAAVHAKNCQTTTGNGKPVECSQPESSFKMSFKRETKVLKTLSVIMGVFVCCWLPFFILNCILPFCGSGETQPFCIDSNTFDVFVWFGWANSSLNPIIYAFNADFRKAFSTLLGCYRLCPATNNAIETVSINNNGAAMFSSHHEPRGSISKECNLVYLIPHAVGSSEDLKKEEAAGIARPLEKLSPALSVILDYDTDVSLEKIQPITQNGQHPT
Vasopressin V1a receptor, sequence (P37288 whole entry): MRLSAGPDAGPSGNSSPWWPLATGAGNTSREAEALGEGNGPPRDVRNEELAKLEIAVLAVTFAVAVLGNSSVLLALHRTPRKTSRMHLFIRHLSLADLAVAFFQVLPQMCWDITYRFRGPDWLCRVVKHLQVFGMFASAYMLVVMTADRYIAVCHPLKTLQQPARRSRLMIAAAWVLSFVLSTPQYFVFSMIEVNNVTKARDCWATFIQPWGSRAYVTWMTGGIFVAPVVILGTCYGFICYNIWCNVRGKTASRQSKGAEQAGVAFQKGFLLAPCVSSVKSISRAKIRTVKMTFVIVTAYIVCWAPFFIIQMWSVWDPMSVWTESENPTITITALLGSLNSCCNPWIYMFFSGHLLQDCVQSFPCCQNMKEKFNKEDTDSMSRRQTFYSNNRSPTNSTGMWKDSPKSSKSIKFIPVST
Sodium-dependent dopamine transporter, sequence (Q01959 whole entry): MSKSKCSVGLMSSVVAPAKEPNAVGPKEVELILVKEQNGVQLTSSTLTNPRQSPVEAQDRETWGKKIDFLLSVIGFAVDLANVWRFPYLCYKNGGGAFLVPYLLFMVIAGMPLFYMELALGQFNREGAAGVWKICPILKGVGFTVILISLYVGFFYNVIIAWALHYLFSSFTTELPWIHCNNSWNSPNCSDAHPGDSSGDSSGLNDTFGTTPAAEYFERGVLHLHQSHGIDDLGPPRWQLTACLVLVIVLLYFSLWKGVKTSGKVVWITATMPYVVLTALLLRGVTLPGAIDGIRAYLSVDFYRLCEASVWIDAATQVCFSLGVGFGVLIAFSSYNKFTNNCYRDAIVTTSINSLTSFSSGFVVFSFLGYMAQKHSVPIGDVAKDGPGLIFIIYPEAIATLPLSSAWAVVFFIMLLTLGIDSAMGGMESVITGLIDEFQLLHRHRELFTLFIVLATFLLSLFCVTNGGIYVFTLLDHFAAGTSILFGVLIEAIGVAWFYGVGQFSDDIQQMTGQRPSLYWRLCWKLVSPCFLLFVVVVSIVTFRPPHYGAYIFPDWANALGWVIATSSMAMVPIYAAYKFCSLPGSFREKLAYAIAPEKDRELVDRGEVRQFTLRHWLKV
Sodium-dependent noradrenaline transporter, sequence (P23975 whole entry): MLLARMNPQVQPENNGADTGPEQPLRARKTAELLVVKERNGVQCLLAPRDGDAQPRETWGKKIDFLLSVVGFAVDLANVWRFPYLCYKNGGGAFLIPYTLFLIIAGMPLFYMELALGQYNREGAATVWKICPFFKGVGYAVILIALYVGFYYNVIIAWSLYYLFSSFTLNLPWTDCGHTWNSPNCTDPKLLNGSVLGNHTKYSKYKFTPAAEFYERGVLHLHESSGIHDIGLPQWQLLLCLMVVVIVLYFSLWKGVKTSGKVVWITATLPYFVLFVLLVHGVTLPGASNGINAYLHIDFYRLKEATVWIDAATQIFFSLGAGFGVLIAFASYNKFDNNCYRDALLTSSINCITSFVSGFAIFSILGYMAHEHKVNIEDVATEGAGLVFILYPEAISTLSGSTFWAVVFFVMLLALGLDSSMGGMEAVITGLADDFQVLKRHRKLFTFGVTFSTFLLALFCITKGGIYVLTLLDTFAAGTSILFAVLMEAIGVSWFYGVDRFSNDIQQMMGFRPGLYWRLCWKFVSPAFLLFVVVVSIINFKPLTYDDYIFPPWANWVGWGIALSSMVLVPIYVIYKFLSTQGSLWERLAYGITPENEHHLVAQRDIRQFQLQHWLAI
Histamine H1 receptor, sequence (P35367 whole entry): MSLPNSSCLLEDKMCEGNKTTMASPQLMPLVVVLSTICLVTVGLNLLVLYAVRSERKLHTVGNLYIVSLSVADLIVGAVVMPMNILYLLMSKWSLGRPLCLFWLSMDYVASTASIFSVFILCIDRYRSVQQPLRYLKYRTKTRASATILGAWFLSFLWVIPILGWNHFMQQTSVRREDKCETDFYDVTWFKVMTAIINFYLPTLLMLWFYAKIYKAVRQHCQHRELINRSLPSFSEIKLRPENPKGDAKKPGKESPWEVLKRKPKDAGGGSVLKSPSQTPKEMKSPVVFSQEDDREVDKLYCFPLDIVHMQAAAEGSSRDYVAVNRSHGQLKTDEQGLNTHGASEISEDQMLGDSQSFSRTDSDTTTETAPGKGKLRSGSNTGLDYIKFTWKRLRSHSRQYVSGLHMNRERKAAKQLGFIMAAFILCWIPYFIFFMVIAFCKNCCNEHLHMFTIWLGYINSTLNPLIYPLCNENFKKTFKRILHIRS
Adenosine receptor A2a, sequence (P29274 whole entry): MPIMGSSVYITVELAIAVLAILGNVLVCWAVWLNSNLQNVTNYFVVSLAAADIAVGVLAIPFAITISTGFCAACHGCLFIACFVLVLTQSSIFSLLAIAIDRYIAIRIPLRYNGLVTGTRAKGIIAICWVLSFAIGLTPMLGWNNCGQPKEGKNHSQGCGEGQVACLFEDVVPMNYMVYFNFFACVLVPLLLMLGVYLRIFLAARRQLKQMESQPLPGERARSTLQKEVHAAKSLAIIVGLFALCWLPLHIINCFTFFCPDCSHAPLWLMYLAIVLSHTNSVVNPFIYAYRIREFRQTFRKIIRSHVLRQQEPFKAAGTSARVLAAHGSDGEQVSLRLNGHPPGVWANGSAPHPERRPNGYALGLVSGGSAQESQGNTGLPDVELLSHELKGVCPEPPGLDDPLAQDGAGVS

Molecule | AC50 [1] | AC50 [2] | AC50 [3] | AC50 [4] | AC50 [5] | AC50 [6] | AC50 [7] | AC50 [8] | AC50 [9] | AC50 [10]
Cc1ccc(S(=O)(=O)NC(=O)N[C@H]2[C@H]3CC[C@@](C)([C@H]2O)C3(C)C)cc1 [GLIBORNURIDE] | > 30 µM | > 30 µM | > 30 µM | > 30 µM | > 30 µM | > 30 µM | > 30 µM | > 30 µM | > 30 µM | > 30 µM
CCC(=O)O[C@H](CC(=O)O)C[N+](C)(C)C [LEVOCARNITINE PROPIONATE] | > 30 µM | > 30 µM | > 30 µM | > 30 µM | > 30 µM | > 30 µM | > 30 µM | > 30 µM | > 30 µM | > 30 µM
CCCCCCCC(=O)CC[C@@H]1[C@@H](C/C=C\CCCC(=O)O)[C@@H](O)C[C@H]1O [UNOPROSTONE] | > 30 µM | > 30 µM | > 30 µM | > 30 µM | > 30 µM | > 30 µM | > 30 µM | > 30 µM | > 30 µM | > 30 µM
SITOSTEROLS | > 30 µM | > 30 µM | > 30 µM | > 30 µM | > 30 µM | > 30 µM | > 30 µM | > 30 µM | > 30 µM | > 30 µM
CCCCC[C@H](O)CC[C@@H]1[C@H]2Cc3cccc(OCC(=O)O)c3C[C@H]2C[C@H]1O [TREPROSTINIL] | > 30 µM | > 30 µM | > 30 µM | > 30 µM | > 30 µM | > 30 µM | > 30 µM | > 30 µM | > 30 µM | > 30 µM
CN(C)CCOC(=O)C(c1ccccc1)C1(O)CCCC1 (stereo not given) [CYCLOPENTOLATE] | > 10 µM | > 30 µM | 0.069 µM | > 30 µM | > 10 µM | > 10 µM | > 30 µM | > 10 µM | > 30 µM | > 10 µM
C[C@H](N)C(=O)N[C@@H](CCC(N)=O)C(=O)O [ALANYL GLUTAMINE] (H-Ala-Gln-OH) | > 30 µM | > 30 µM | > 30 µM | > 30 µM | > 30 µM | > 30 µM | > 30 µM | > 30 µM | > 30 µM | > 30 µM
NS(=O)(=O)c1ccc(N2CCCCS2(=O)=O)cc1 | > 30 µM | > 30 µM | > 30 µM | > 30 µM | > 30 µM | > 30 µM | > 30 µM | > 30 µM | > 30 µM | > 30 µM
CCOC(=O)O[C@]1(C(=O)COC(=O)CC)CC[C@H]2[C@@H]3CCC4=CC(=O)C=C[C@]4(C)[C@H]3[C@@H](O)C[C@@]21C [PREDNICARBATE] | > 10 µM | > 10 µM | > 10 µM | > 10 µM | > 10 µM | > 10 µM | > 10 µM | > 10 µM | > 30 µM | 0.017 µM
CC(=O)OCC1=C(C(=O)O)N2C(=O)[C@@H](NC(=O)Cc3cccs3)[C@H]2SC1 [CEPHALOTHIN] | > 30 µM | > 30 µM | > 30 µM | > 30 µM | > 30 µM | > 30 µM | > 30 µM | > 30 µM | > 30 µM | > 30 µM
COc1ccc(C(Cl)=C(c2ccc(OC)cc2)c2ccc(OC)cc2)cc1 [CHLOROTRIANISENE] | > 30 µM | > 30 µM | > 30 µM | > 30 µM | > 30 µM | > 30 µM | > 30 µM | > 30 µM | > 30 µM | > 30 µM
